The values below come from patent US12208108B2, “Drug targets of delayed aging and human brain diseases” (Texas Tech University System, priority 2016, dated 2025).

The test system of experiment [1] is mutant APPSwe/Ind mouse neuroblastoma (N2a) cells. The experiment can be described thus: Co-immunoprecipitation and immunoblotting of mutant APPSwe/Ind cells. The note with it: DDQ 250 nM 24 hrs vs mutant APPSwe/Ind cells untreated with DDQ. The experiment is classed as cell-based. As for the experimental part: Co-immunoprecipitation and immunoblotting analysis of mutant APPSwe/Ind cells treated with DDQ. To determine whether DDQ reduces the interaction of Aβ with Drp1 in mutant APPSwe/Ind cells, the inventors used mutant APPSwe/Ind cDNA construct transfected into mouse neuroblastoma (N2a) cells and further cells were treated with DDQ. The inventors performed immunoprecipitation with Aβ (6E10) antibody and immunoblotting analysis with 6E10 and the inventors also performed co-immunoprecipitation analysis with Aβ (6E10) antibody and immunoblotting analysis with Drp1 antibody. […] These findings further confirm that DDQ reduces full-length APP and 4 kDa Aβ and reduces interaction between Drp1 and Aβ.
Mutant APPSwe/Ind cells: The inventors purchased mutant APPSwe cDNA clone (pCAX-APPSwe/Ind) from Addgene—https://www.addgene.org and verified expression of mutant APP APPSwe/Ind cDNA and further sub-cloned into a mammalian expression vector (Arubala P. Reddy—unpublished observations). The inventors transfected mutant APPSwe/Ind cDNA into mouse neuroblastoma (N2a) cells for 24 hrs and after transfection, cells were treated with DDQ (250 nM) for 24 hrs. The inventors harvested mutant APPSwe/Ind cells treated and untreated with DDQ and prepared protein lysates and performed co-immunoprecipitation using Aβ (6E10) antibody and conducted immunoblotting analysis with 6E10 and Drp1 antibodies.
The inventors performed co-immunoprecipitation (co-IP) assays using the Dynabeads Kit for Immunoprecipitation (Invitrogen). Briefly, 50 μL of Dynabeads containing protein G was incubated with 10 μg 6E10 or 10 μg of the Drp1 antibodies (both mono- and polyclonal antibodies; Santa Cruz), with rotation, for 1 h at room temperature. The inventors used all the reagents and buffers provided in the kit. Details of antibodies used for co-IP and western blotting are given Table 5. The Dynabeads-Aβ complex was washed three times with a washing buffer and was then incubated overnight with 400 μg of protein at 4° C., with rotation. […]
On the technique in general: A western blot detects proteins with antibodies after separation by electrophoresis.

Experiment [2] addresses T1, colocalization of Drp1 and Aβ (Homo sapiens, UniProt O00429).
T1 construct: SHSY5Y cells incubated with Aβ peptide 1-42 (20 uM final concentration); Anaspec (Aβ 1-42 peptide); host or cells: SHSY5Y human neuroblastoma cells
Description: Double-labeling immunofluorescence analysis of Drp1 and Aβ. Format: cell-based. The protocol: Double-labeling immunofluorescence analysis of Drp1 and Aβ. To determine whether Drp1 localizes and interacts with Aβ, the inventors conducted double-labeling analysis of Drp1 and Aβ in DDQ pre-treated, post-treated and untreated, Aβ incubated cells.
Double labeling immunofluorescence analysis of Drp1 and Aβ. To determine the interaction between Drp1 and Aβ, the inventors conducted double-labeling immunofluorescence analysis, using an anti-Drp1 antibody (rabbit polyclonal, Santa Cruz Biotechnology) and 6E10 (Covance). As described earlier, the sections from AD patients and control subjects were deparaffinized and treated with sodium borohydrate to reduce autofluorescence.
For the first labeling, the Aβ incubated (DDQ pre-treated, post-treated and untreated) cells were incubated overnight with the anti-Drp1 antibody (1:200) at room temperature. On the day after this primary antibody incubation, the sections were washed with 0.5% Triton in PBS. They were then incubated with a secondary biotinylated anti-rabbit antibody at a 1:400 dilution (Vector Laboratories, Burlingame, Calif., USA) or a secondary biotinylated anti-mouse antibody (1:400) for 1 h at room temperature. They were incubated for 1 h with labeled streptavidin, an HRP solution (Molecular Probes). […]

A further experiment deals with SHSY5Y cells. Description: H2O2 production (Amplex Red). The experiment is classed as cell-based, Human. The protocol: Mitochondrial function assays. Hydrogen peroxide production. Using an Amplex® Red H2O2 Assay Kit (Molecular Probes, Eugene, Oreg.), the inventors measured the production of H2O2 in independent experiments (n=4) of SHSY5Y neurons treated 1) with and 2) without DDQ, DDQ treated and then incubated with Aβ, as described in Manczak et al..

T1 sequence (O00429 whole entry): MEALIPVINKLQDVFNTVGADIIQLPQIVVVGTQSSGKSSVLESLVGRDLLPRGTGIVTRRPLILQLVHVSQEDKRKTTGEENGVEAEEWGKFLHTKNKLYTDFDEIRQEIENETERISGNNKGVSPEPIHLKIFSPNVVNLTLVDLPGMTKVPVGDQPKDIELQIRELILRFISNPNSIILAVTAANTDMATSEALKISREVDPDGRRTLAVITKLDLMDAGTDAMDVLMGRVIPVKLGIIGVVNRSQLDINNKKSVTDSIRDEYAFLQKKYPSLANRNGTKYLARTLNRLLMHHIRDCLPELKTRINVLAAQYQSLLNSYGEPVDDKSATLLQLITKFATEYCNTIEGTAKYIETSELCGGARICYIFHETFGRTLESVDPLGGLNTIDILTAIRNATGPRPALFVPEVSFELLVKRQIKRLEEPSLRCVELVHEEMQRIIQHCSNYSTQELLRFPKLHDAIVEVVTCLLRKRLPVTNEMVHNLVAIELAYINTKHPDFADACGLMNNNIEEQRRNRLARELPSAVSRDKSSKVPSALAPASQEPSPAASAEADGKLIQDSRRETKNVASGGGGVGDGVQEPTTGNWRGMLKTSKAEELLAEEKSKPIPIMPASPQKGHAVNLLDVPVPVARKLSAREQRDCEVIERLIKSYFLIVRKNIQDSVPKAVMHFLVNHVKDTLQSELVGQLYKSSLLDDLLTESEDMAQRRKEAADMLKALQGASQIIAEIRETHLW

Take `CCOP(=O)(OCC)C(NCCc1ccc(O)c(O)c1)c1ccnc2ccccc12` (stereo not shown) [DDQ, diethyl(3,4-dihydroxyphenethylamine)(quinolin-4-yl)methylphosphonate]: the “4 kDa Aβ levels (IP 6E10, WB 6E10)” value in experiment [1] is reported as “reduced levels”. Besides, the “Drp1 levels (co-IP 6E10, WB Drp1)” value in experiment [1] was “reduced levels”. For the same compound, the “full-length APP levels (IP 6E10, WB 6E10)” value in experiment [1] was “reduced levels”. For the same compound, the “co-localization of Drp1 with Aβ” value in experiment [2] (DDQ post-treated Aβ incubated cells vs Aβ incubated cells alone) and in experiment [2] (DDQ pre-treated Aβ incubated cells vs Aβ incubated cells alone) was “reduced co-localization” in each case. The H2O2 levels entry in the experiment on SHSY5Y cells (Aβ + DDQ (Aβ1-42 20 μM 6 hrs, then DDQ 24 hrs) vs untreated cells) was “Significantly increased levels”; with SHSY5Y cells (Aβ + DDQ (Aβ1-42 6 hrs, then DDQ 24 hrs) vs cells incubated with Aβ), “significantly reduced”; with SHSY5Y cells (DDQ 250 nM 24 hrs vs untreated cells), “significantly decreased levels”; in the experiment with SHSY5Y cells (DDQ + Aβ (DDQ 24 hrs, then Aβ1-42 6 hrs) vs cells incubated with Aβ) it was “significantly reduced”; with SHSY5Y cells (DDQ + Aβ (DDQ 24 hrs, then Aβ1-42 6 hrs) vs untreated cells) it was “Significantly increased levels”.
